What was measured:
Kir2.1 = target: T1, Kir2.1 (Homo sapiens, UniProt P63252); assay: Barium induced change in hepatocyte membrane potential in Kir2.1 and eGFP expressing mice; type: in vivo, mouse; settings: 50 μM bath application
T1 construct: host or cells: hepatocytes of wildtype mice in vivo, AAV8 with TBG promoter
T1 sequence (P63252 1-427): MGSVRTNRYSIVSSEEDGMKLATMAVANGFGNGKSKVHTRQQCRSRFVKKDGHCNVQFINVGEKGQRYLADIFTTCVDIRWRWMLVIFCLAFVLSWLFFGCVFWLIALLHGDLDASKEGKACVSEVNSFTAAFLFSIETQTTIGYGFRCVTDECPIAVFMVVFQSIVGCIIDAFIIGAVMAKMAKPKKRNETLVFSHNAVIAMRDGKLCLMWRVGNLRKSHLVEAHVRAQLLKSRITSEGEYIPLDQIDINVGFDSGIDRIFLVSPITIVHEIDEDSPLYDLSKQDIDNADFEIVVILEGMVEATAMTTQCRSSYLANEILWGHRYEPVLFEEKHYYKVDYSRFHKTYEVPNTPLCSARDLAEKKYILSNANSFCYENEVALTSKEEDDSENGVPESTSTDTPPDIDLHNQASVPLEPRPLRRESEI

Na+/K+ ATPase = assay: liver slice GABA release with Na+/K+ ATPase inhibitor; type: cell-based, mouse; settings: 1 mM, bath application
Source text: Two liver slices were taken from each mouse.

[1] = test system: PSEM89S ligand-gated depolarizing channel; type: in vivo, mouse
Source text: (§1) The depolarizing channel (PSAM^L141F,Y115F-5 HT3HC), originally engineered by Dr. Scott Sternsons group, was made by mutating the acetylcholine binding domain of a chimeric channel that included the binding domain of the α7 nicotinic acetylcholine receptor and the ion pore domain of the serotonin receptor 3a. The ligand binding domain mutations (Leu^141→Phe and Tyr^115→Phe) limited the agonist action of acetylcholine and allowed for stimulation by a pharmacologically selective effector molecule PSEM89S. The exogenous ligand PSEM89S opens the serotonin receptor 3a channel allowing Na^+, K^+, and Ca^++ passage into the cell and membrane depolarization. AAV8 viral vectors were used for plasmid delivery in all the reported studies and were synthesized by the Penn Vector Core. Hepatic specific expression of the depolarizing channel was achieved through two different methods. First, expression of a cre-recombinase dependent depolarizing channel was driven by a globally expressed CAG promoter. LoxP sites limited expression to cre-recombinase expressing tissue, and tail vein injection of 1×10^10 viral genome copies established hepatocyte expression in albumin-cre but not wildtype mice. Second, a separate AAV8 viral vector, induced hepatic specific expression of the same depolarizing channel by driving expression using the thyroxine binding globulin (TBG) promoter. Tail vein injection of 1×10^11 viral genome copies established hepatocyte expression (FIG. 18C). The thyroxine binding globulin promoter also drove hepatic expression of the hyperpolarizing, inward-rectifier K^+ channel, Kir2.1. […]
Simultaneous in vivo recordings were performed of hepatocyte membrane potential and hepatic afferent vagal nerve firing activity in anesthetized (isoflurane) mice to directly assess the effect of hepatocyte depolarization on hepatic afferent vagal nerve activity. […] After placement and sealing of the hook electrode, 45-60 minutes of basal nerve activity was monitored/recorded with pClamp software (version 10.2; Molecular Devices) until nerve activity stabilized, after which, treatments began. […]

[2] = test system: PSEM89S ligand-gated depolarizing channel; assay: PSEM89S ligand IP in mice with cre-dependent hepatic depolarizing channel: serum insulin, glucose; type: in vivo, mouse; settings: 30 mg/kg IP
Source text: The depolarizing channel (PSAM^L141F,Y115F-5 HT3HC), originally engineered by Dr. Scott Sternsons group, was made by mutating the acetylcholine binding domain of a chimeric channel that included the binding domain of the α7 nicotinic acetylcholine receptor and the ion pore domain of the serotonin receptor 3a. The ligand binding domain mutations (Leu^141→Phe and Tyr^115→Phe) limited the agonist action of acetylcholine and allowed for stimulation by a pharmacologically selective effector molecule PSEM89S. The exogenous ligand PSEM89S opens the serotonin receptor 3a channel allowing Na^+, K^+, and Ca^++ passage into the cell and membrane depolarization. AAV8 viral vectors were used for plasmid delivery in all the reported studies and were synthesized by the Penn Vector Core. Hepatic specific expression of the depolarizing channel was achieved through two different methods. First, expression of a cre-recombinase dependent depolarizing channel was driven by a globally expressed CAG promoter. LoxP sites limited expression to cre-recombinase expressing tissue, and tail vein injection of 1×10^10 viral genome copies established hepatocyte expression in albumin-cre but not wildtype mice. Second, a separate AAV8 viral vector, induced hepatic specific expression of the same depolarizing channel by driving expression using the thyroxine binding globulin (TBG) promoter. Tail vein injection of 1×10^11 viral genome copies established hepatocyte expression (FIG. 18C). The thyroxine binding globulin promoter also drove hepatic expression of the hyperpolarizing, inward-rectifier K^+ channel, Kir2.1. Tail vein injection of 1×10^11 viral genome copies established hepatocyte specific expression (FIG. 19A). To confirm channel expression and tissue specificity, all viral vector plasmids encoded for enhanced green fluorescent protein (eGFP).
All studies in virus injected mice were conducted at least 5 days post virus injection to allow for maximal channel expression. Individually housed mice were intraperitoneally injected with the ligand for the depolarizing channel (PSEM89S; 30 mg/kg; 0.1 mL/10 g body weight) or PBS (0.1 mL/10 g body weight).
Studies conducted in mice injected with the cre-dependent depolarizing channel virus took place at 8 am. […]
(§2) Within 2 hours of collection, blood was left to clot at room temperature for 20 minutes. […] Serum glucose was analyzed by colorimetric assay (Cat. #G7519, Pointe Scientific Inc., Canton Mich.). Serum insulin was analyzed by enzyme-linked immunosorbent assay (ELISA; Cat. #80-INSMSU-E01,E10, Alpco, Salem, N.H.). Serum glucagon was analyzed by enzyme-linked immunosorbent assay (ELISA; Cat. #10-1281-01, Mercodia, Uppsala, Sweden) from tail vein blood collected at 9 am from fed mice (Vagotomy study) or after a 4 hour fast at 1 PM (Kir2.1 study).

[3] = test system: PSEM89S ligand-gated depolarizing channel; assay: PSEM89S ligand IP before oral glucose in mice with TBG promoter driven depolarizing channel; type: in vivo, mouse; settings: TBG channel expressing mice
Source text: as §1, with “18C).” for “18C). The thyroxine binding globulin promoter also drove hepatic expression of the hyperpolarizing, inward-rectifier K^+ channel, Kir2.1.”
as §2

[4] = test system: high fat diet-induced obese mice; assay: GABA-T inhibitors (8 mg/day IP) in HFD-induced obese mice: body weight, serum insulin/glucose/glucagon, OGTT, ITT; type: in vivo, mouse
Protocol: (§3) All animal studies were conducted using male wildtype C57BL/6J mice purchased from Jackson Laboratories or bred in-house (Bar Harbor, Me.). Mice were kept on a 14-hour light/10-hour dark schedule and housed 3-5 mice per cage until 1 week prior to study initiation, at which point animals were individually housed. Studies were conducted in lean chow fed mice (7013 NIH-31, Teklad WI, 3.1 kcal/g, 18% kcal from fat, 59% kcal from carbohydrate, 23% kcal from protein) at 12-16 weeks of age. Studies in diet-induced obese mice dosed intraperitoneally with GABA transaminase inhibitors, mice treated with ethanolamine-O-sulfate in their drinking water, and mice treated with GABA-T targeted or scramble control antisense oligonucleotides (ASO) were performed after 8-10 weeks on a high fat diet (TD 06414, Teklad WI, 5.1 kcal/g, 60.3% kcal from fat, 21.3% kcal from carbohydrate, 18.4% kcal from protein; 20-26 weeks of age). For ASO studies, mice were stratified by body weight and assigned to an injection treatment (control or GABA-T). Studies in obese vagotomy and sham mice were performed after 9 weeks of high fat diet feeding. Unless fasted, mice had ad libitum access to food and water. All studies were approved by The University of Arizona Institutional Animal Care and Use Committee.
(§4) Wildtype lean and obese mice were randomly divided into treatment groups and dosed daily with 8 mg of ethanolamine-O-sulfate (EOS; Sigma-Aldrich, St. Louis, Mo.), vigabatrin (United States Pharmacopeia, Rockville, Md.) or PBS. Obese sham and vagotomy mice were dosed daily with 8 mg of EOS. In all cases, basal bleeds were taken prior to initiation of an ITT. Lean mice received treatment by oral gavage (0.3 mL/mouse) while obese mice were treated by intraperitoneal injection (0.3 mL/mouse). Pre-treatment studies were conducted in the week immediately prior to beginning drug administration. Daily doses took place at 9 am each day and oral glucose tolerance tests (OGTT) and insulin tolerance tests (ITT) were performed on the third and fourth days of treatment in lean mice, respectively. In wildtype obese mice, OGTT and ITT were performed on the fourth day of treatment in separate cohorts. On the fifth day of treatment, 2DG clearance studies were performed. In sham/vagotomy mice, OGTT and ITT were performed on the fourth and fifth day of treatment, respectively. After a 2-week washout period without treatment injection, a basal bleed and bleed 15 minutes after an oral glucose gavage ([…]) to determine oral glucose stimulated insulin secretion were performed.
(§5) Oral glucose (2.5 g/kg; 0.1 mL/10 g body weight; Chem-Impex Int'l Inc., Wood Dale, Ill.) was given to 4 hour fasted individually housed mice. All glucose tolerance tests began at […] and glucose was measured in whole blood, collected from the tail vein, by glucometer (Manufacture #D2ASCCONKIT, Bayer, Leverkusen, Germany) at 0, 15, 30, 60, 90, and 120 minutes after glucose gavage. Blood for serum insulin (oral glucose stimulated insulin secretion; OGSIS) and glucose determination was collected from the tail vein 15 minutes following glucose administration.
(§6) Intraperitoneal insulin (0.5 U/kg; 0.1 mL/10 g body weight; Sigma Aldrich, St. Louis, Mo.) was given to 4 hour fasted individually housed mice. All insulin tolerance tests began at […] and glucose was measured in whole blood, collected from the tail vein, by glucometer (Manufacture #D2ASCCONKIT, Bayer, Leverkusen, Germany) at 0, 30, 60, 90, and 120 minutes after insulin injection.
(§7) Within 2 hours of collection, blood was left to clot at room temperature for 20 minutes. Thereafter, the blood was centrifuged at 3,000×g for 30 minutes at 4° C. and serum was collected. Serum was stored at −80° C. until metabolite and hormone analyses. A colorimetric assay was used to analyze serum glucose (Cat. #G7519, Pointe Scientific Inc., Canton Mich.). Serum insulin was analyzed by enzyme-linked immunosorbent assay (ELISA; Cat. #80-INSMSU-E01,E10, Alpco, Salem, N.H.). […]

lean mice = assay: GABA-T inhibitors (8 mg/day oral gavage) in lean mice: glucose homeostasis; type: in vivo, mouse; settings: 8 mg/day
Protocol: as §3, §4, §5, §6, §7

[5] = test system: lean mice and obese control or GABA-T ASO treated mice; assay: leptin sensitivity (single 6 am leptin injection): food intake, body weight; type: in vivo, mouse
Protocol: Lean mice or diet-induced obese control or GABA-T targeted ASO treated mice received an intraperitoneal injection of phosphate buffered saline (PBS; 0.1 mL/10 g body weight) on day 1 and leptin (2 mg/kg; 0.1 mL/10 g body weight; CAT#498-OB, R&D Systems, Minneapolis, Minn.) on day 2 at 6 am. Mice were not fasted before injections. Food and body weight were measured every day at 6 am and 6 pm.

[6] = albumin-cre channel expressing mice
[7] = 30 mg/kg IP 10 minutes before oral glucose 2.5 g/kg
[8] = 8 mg/day IP, four days, relative to pre-treatment
[9] = chow fed mice, single 6AM injection

Q: Which depolarization of hepatocytes (Kir2.1; Kir2.1 expressing mice) does the source give for `[Ba+2]` [Ba2+, Barium] here?
A: 6.86±1.54 mV

Q: What about the “change in hepatocyte membrane potential” value (Kir2.1; control eGFP expressing mice) of the same molecule?
A: −0.62±1.86 mV

Q: For `C[C@@H]1O[C@@H](O[C@H]2C[C@@H](O)[C@]3(CO)[C@H]4[C@H](O)C[C@]5(C)[C@@H](C6=CC(=O)OC6)CC[C@]5(O)[C@@H]4CC[C@]3(O)C2)[C@H](O)[C@H](O)[C@H]1O` [Ouabain], which “increase of liver slice GABA release (μmol/mg DNA)” value (Na+/K+ ATPase) is on record?
A: more than 40%

Q: For `COc1ccc(OC)c(C(=O)N[C@@H]2CN3CCC2CC3)c1.O=C(O)C(F)(F)F` [PSEM89S ligand], which HVAN firing activity ([1]; 30 μM bath application, albumin-cre channel expressing mice) is on record?
A: decreased

Q: What about the “hepatocyte depolarization at 10 minutes” value ([1]; mouse, in vivo) of the same molecule?
A: 17.0±5.4 mV

Q: What about the maximal hepatocyte depolarization ([1]; mouse, in vivo) of the same molecule?
A: 28±5.4 mV

Q: And the serum glucose [2, 6]?
A: decreased

Q: And the serum insulin [2, 6]?
A: more than doubled

Q: What about the “glucose:insulin ratio” value ([2]; albumin-cre mice) of the same molecule?
A: decreased

Q: What about the “serum insulin, glucose, or glucose:insulin ratio” value ([2]; wildtype mice) of the same molecule?
A: did not alter

Q: What about the “glucose:insulin ratio” value [3, 7] of the same molecule?
A: lowered

Q: What about the serum insulin [3, 7] of the same molecule?
A: elevated

Q: And the “rise in serum glucose following oral glucose gavage” value ([3]; 30 mg/kg IP)?
A: did not affect

Q: Which results are given for `C=CC(N)CCC(=O)O` (stereo not shown) [vigabatrin]?
A: glucose:insulin ratio [4, 8]: increased; serum glucose [4, 8]: decreased; serum insulin [4, 8]: decreased; body weight ([4]; 8 mg/day IP, through 5 days, vs saline injected mice): remained similar; glucose stimulated serum insulin ([4]; treatment day 4, relative to pre-treatment): decreased; glucose stimulated serum insulin after washout ([4]; two-weeks washout): markedly increased; serum insulin and glucose:insulin ratio after washout ([4]; two-weeks washout): return of serum insulin and the glucose:insulin ratio to pre-treatment levels; insulin sensitivity assessed by insulin tolerance test (ITT) ([4]; within 4 days of initiating treatment): improved; glucose tolerance (lean mice): no effect; insulin sensitivity (lean mice): no effect; serum insulin concentrations (lean mice): no effect

Q: “leptin: anorexigenic hormone leptin (R&D Systems)” was tested. Which body weight [5, 9] did it give?
A: without affecting

Q: What about the “light cycle and 24-hour food intake” value [5, 9] of the same molecule?
A: decreased

Q: And the relative weight change ([5]; control or GABA-T ASO obese mice, 2 mg/kg)?
A: not affected

Q: What about the food intake ([5]; obese mice on either ASO treatment, 2 mg/kg single 6AM injection, any timepoint) of the same molecule?
A: did not affect

Source: US20230128194A1, “METHODS AND COMPOSITIONS TO ALTER HEPATIC GABA RELEASE TO TREAT OBESITY-RELATED CONDITIONS” (ARIZONA BOARD OF REGENTS ON BEHALF OF THE UNIVERSITY OF …, priority 2017, published 2023)
